Data set [1] has as its target T1, CYP2C19 (Homo sapiens, UniProt P33261).
T1 construct: purchased BD Biosciences (San Jose, Calif.)
Briefly: CYP2C19 inhibition, DBF substrate. It counts as in vitro ADME. As to conditions: average of six replicate experiments; for inhibition at 10 µM: human, microsomes containing human recombinant CYP2C19, probe dibenzylfluorescein (DBF), 10 μM test compound, read-out: Inhibition of CYPD2C19, % inhib. at 10 μM; for IC50: 95% confidence limits in parentheses, read-out: Inhibition of CYPD2C19, IC50. The procedure:
CYP2C19 activity was measured using dibezylflourescein (DBF) as substrate. The source of enzyme was microsomes containing human recombinant CYP2C19 obtained from BD Biosciences (San Jose, Calif.). Conversion of DBF to fluorescein was measured using a PerkinElmer Fusion with a 485 nm excitation filter and a 535 nm emission filter.

Data set [2] relates to Sprague-Dawley rats, forced swim behaviour. The experiment in a line: Rat Forced Swim Test of depression. The format is in vivo. As to conditions: for amount of time spent climbing: 3-30 mg/kg IP. An excerpt: Protocol: Male Sprague-Dawley rats (approximately 200 g) are placed in a tank of room temperature water for a fifteen minute practice swim. Every five seconds during the first five minutes of the practice swim, the rats are rated as immobile (floating with motion needed to keep head above the water), swimming (movement across the swim), or climbing (actively trying to climb out of the tank of water, upward directed movements of the forepaws). The percentage of time the rats spent in each of these responses is calculated.
Approximately 24 h after the practice swim, the rats are treated with vehicle or test compound and placed in the tank for a 5 minute swim. As was the case with the practice swim, the rats are rated as immobile, swimming, or climbing during the test swim and the percentage of time spent in each of these responses is calculated. The data are analyzed by one-way ANOVA with post-hoc analysis to compare the behavioral response after vehicle treatment to the behavioral response after drug treatment for each of the three behavioral responses. The level of significance is set at p<0.05.
The percent of time spent immobile, swimming, and climbing (actively trying to scale the sides of the swim tank) in the test swim is shown in FIGS. 15 A, B, and C.

The target of data set [3] is T2, human dopamine transporter (hDAT) (Homo sapiens, UniProt Q01959).
T2 construct: expressed in transfected cells; host or cells: CHO cells (membranes)
The experiment in a line: DA transporter competitive binding assay, [3H]BTCP. As to conditions: for inhibition at 10 µM: read-out: Monoamine Transporter Affinity, DA, % inhib at 10 μM; for Ki: read-out: Monoamine Transporter Affinity, DA, Ki. The procedure: For the DA transporter binding assay, [^3H]N-[1-(2-benzo[b]thiophenyl)cyclohexyl]-piperidine ([^3H]BTCP) (4.0 nM) was incubated for 2 hr at 4° C. with membranes prepared from Chinese hamster ovary (CHO) cells heterologously expressing the cloned human dopamine transporter (hDAT). Various concentrations of test compound were added and bound radioactivity was determined by scintillation spectroscopy. Non-specific binding was defined as binding that occurred in the presence of 10 μM BTCP. The Ki values for the various test compounds were determined using standard methods.

Data set [4] deals with T3, α2a adrenergic receptor (Homo sapiens, UniProt P08913).
T3 construct: expressed in transfected cells; host or cells: CHO cells
T3 sequence (P08913 1-465): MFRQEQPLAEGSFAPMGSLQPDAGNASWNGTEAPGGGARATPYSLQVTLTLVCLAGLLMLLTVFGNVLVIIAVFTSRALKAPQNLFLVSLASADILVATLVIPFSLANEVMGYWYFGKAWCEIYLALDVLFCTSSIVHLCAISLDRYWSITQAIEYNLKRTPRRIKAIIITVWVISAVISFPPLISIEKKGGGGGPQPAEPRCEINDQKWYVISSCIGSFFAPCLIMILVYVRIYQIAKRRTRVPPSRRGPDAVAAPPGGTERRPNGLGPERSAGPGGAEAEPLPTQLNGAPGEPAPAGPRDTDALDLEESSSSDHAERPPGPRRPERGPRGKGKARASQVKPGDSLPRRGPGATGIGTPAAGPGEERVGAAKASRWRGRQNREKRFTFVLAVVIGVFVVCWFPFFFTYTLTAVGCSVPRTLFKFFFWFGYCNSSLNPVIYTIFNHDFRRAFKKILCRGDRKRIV
Briefly: α2a adrenergic receptor binding, [3H]RX821002. To be noted: for inhibition at 10 µM: read-out: α2a adrenergic receptor, % inhib. at 10 μM. The procedure: Affinity for the α2a adrenergic receptor was tested using CHO cells heterologously expressing the cloned human receptor that were incubated with [^3H]RX821002 (1.0 nM) in the presence of various concentrations of test compounds for 1 hour at 22° C. Nonspecific binding was determined in the presence of 100 μM (−)-epinephrine. Bound radioactivity was determined by scintillation spectroscopy.

In data set [5] the target is T4, α1a adrenergic receptor (rat salivary gland membranes) (Rattus norvegicus, UniProt P43140).
T4 construct: tested using membranes prepared from rat salivary gland; from tissue; host or cells: rat salivary gland membranes
T4 sequence (P43140 1-466): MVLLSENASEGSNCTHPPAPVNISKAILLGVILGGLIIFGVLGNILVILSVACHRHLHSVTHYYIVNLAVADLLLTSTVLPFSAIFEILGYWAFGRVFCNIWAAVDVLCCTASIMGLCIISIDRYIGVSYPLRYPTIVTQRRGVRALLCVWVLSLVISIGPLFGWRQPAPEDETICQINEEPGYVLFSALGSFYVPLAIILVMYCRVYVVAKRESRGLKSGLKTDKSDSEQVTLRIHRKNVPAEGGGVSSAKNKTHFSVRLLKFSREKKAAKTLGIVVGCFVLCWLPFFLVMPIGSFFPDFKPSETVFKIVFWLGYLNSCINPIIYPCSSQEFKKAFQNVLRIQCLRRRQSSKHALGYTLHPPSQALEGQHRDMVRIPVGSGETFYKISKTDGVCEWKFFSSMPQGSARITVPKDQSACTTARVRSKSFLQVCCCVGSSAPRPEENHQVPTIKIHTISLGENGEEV
Briefly: α1a adrenergic receptor binding, [3H]prazocine. The method, then: The affinities of AT, NT, (+)-E-10-OH-NT and (−)-E-OH-NT for the α1a, α1b, α2a, α2b, and α2c adrenergic receptors was tested. Affinity for the α1a adrenergic receptor was tested using membranes prepared from rat salivary gland. [^3H]Prazocine (0.06 nM) was incubated in the presence of various concentrations of test compounds with the membranes for 1 hour at 22° C. Nonspecific binding was determined in the presence of 10 μM phentolamine. Bound radioactivity was determined by scintillation spectroscopy.

For data set [6], the system named is rotarod performance in rats. Briefly: Rat rotarod assay of sedation. The format is in vivo. To be noted: for peak deficit in rotarod performance: 30 mg/kg, i.p., peak at 30 minutes; for ED50 for impairment of rotarod performance: IP. The method, then:
Protocol. The rat rotarod assay is commonly used to assess sedation associated with chemical drugs. […] Once the rats were in position, the timers were set to zero and the rotarod switched to accelerating mode. The rotarod accelerated from 4 to 40 rpm over a five-minute interval. The timers automatically turned off when the rats fell from the rotating drum, recording a latency to fall in seconds. […] The performance score was recorded in seconds for each interval. The baseline rotarod performance score was the latency to fall off the rotarod on the third training session. Baselines must have been greater than or equal to 60 seconds duration for the rat to be included in the experiment.
(In the rotarod test animals must keep their balance on a rotating rod.)

The mark [7] stands for this setting: read-out: Affinity at α1a adrenergic receptor, Ki.

The record followed here is patent US20120178815A1, “Compositions of (-)-E-10-OH-NT and Methods for Their Synthesis and Use” (Adolor Corporation, priority 2007, published 2012).

Where “and” joins values, the source holds several entries; their conditions need not be identical. Equal values may be shown once. Entries after “also recorded” stand apart in the source; their conditions may differ. Read-outs that look alike come from different tables or passages of the source. Where only a bound is given, the exact number is not on record here.

T1 sequence (P33261 whole entry): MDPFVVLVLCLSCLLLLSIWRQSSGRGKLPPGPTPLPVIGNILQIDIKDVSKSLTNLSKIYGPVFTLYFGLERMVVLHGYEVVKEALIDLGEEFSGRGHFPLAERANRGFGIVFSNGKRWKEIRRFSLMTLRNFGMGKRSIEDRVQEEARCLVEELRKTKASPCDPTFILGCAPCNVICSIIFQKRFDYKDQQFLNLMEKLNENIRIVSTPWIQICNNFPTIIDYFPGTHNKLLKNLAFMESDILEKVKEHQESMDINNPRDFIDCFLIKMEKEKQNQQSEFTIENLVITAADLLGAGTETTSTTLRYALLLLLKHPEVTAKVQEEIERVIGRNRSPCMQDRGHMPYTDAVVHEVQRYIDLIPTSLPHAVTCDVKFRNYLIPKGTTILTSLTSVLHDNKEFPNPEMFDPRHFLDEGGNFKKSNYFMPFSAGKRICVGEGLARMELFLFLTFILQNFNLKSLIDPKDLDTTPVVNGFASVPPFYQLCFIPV
T2 sequence (Q01959 whole entry): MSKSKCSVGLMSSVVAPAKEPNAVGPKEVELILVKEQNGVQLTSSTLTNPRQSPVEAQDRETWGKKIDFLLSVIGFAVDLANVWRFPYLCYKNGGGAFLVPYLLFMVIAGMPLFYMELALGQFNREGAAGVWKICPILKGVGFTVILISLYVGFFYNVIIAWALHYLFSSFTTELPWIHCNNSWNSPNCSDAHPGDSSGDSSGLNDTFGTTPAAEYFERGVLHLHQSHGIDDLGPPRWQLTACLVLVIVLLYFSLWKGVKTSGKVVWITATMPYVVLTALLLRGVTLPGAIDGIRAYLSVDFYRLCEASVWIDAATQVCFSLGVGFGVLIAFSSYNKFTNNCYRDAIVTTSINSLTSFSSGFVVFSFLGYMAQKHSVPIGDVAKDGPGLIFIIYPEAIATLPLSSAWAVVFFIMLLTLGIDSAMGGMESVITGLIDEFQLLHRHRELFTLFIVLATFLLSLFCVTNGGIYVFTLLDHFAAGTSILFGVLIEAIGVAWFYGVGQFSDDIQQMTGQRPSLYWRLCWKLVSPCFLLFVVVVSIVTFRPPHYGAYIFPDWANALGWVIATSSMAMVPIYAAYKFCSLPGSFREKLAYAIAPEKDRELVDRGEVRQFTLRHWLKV

A word on the Ki: it is a measure of affinity in units of concentration, obtained from inhibition or displacement. For `CNCC/C=C1\c2ccccc2C[C@H](O)c2ccccc21` (stereo in doubt) [(+)-E-10-OH-NT], the inhibition at 10 µM came out at 20% in data set [1], 25% in data set [3] and 15% in data set [4]. Besides, the “activity in the forced swim test” value in data set [2] (doses up to 30 mg/kg IP) was “not active”. In addition, the results for the Ki in data set [3] and in data set [5] (setting [7]) were greater than 1000 nM and 700 nM, respectively.

Regarding `CNCC/C=C1\c2ccccc2C[C@@H](O)c2ccccc21` (stereo in doubt) [(−)-E-10-OH-NT], the inhibition at 10 µM was found to be 24% in data set [1], 3% in data set [3] and 23% in data set [4]. Moreover, the “increase in time spent swimming” value worked out at 64% in data set [2] (10 mg/kg IP) and 108% in data set [2] (30 mg/kg IP). Further, in data set [2], the “amount of time spent climbing” value was “did not alter the amount of time spent climbing”. The results for the Ki in data set [3] and in data set [5] (setting [7]) were greater than 1000 nM and 3000 nM, respectively. In addition, the “impairment of rotarod performance” value in data set [6] (30 mg/kg IP, rats (Example 17)) was 5%. Besides, the “peak deficit in rotarod performance” value in data set [6] (rats) was “no impairment in rotarod performance; also recorded: no significant impairment in performance; also recorded: no impairment of performance”. In addition, the “ED50 for impairment of rotarod performance” value in data set [6] (rats) is 120 mg/kg IP.

The IC50 is the point on the concentration scale where inhibition reaches its midpoint. Consider `CN(C)CCC=C1c2ccccc2CCc2ccccc21` [AT, amitriptyline, reference compound], for which the IC50 in data set [1] was found to be 3500 nM. Moreover, the results for the “increase in time spent swimming” value in data set [2] (10 mg/kg IP) and in data set [2] (30 mg/kg IP) were 81% and 147%, respectively. Further, the “amount of time spent climbing” value in data set [2] is “did not alter the amount of time spent climbing”. For the same compound, the Ki in data set [3] is 2100 nM; in data set [4] (read-out: Affinity at α2a adrenergic receptor, Ki) it was 570 nM; in data set [5] (setting [7]) it was 21 nM. Besides, the “peak deficit in rotarod performance” value in data set [6] (rats) worked out at 51±20%. The “maximal impairment of rotarod performance” value in data set [6] (100 mg/kg IP, rats) came to 96%. Moreover, the “ED50 for impairment of rotarod performance” value in data set [6] (rats) turned out to be 27 mg/kg IP.

Consider `CNCCC=C1c2ccccc2CCc2ccccc21` [NT, nortriptyline, reference compound], for which, in data set [1], the half-inhibitory concentration (IC50) was 1500 nM. Moreover, in data set [6] (rats), the “peak deficit in rotarod performance” value was 60±14% and 60±40%. Further, the Ki in data set [5] worked out at 60 nM.
